The results in this text go back to patent US20230167121A1, “SUBSTITUTED {1,2,4,} TRIAZOLO{1,5-A} PYRIMIDINE COMPOUNDS AND USE IN STABILIZING MICROTUBULES” (THE TRUSTEES OF THE UNIVERSITY OF PENNSYLVANIA, priority 2020, published 2023).

Where “and” joins values, the source holds several entries; their conditions need not be identical. Equal entries are not always repeated. Structures can show the parent of a compound that is named as a salt. Where two headings read alike, the source gives them in different places.

Data set [1] in a line: Plasma and brain compound determinations (LC-MS/MS). It counts as in vivo. As to conditions: CD1 mice, 2.5 mg/kg each, one hour after dosing; for concentration at 1 h / Kp at 1 h: CD1, mouse, 2.5 mg/kg. How it is done: CD1 mice (n=3) were dosed concurrently with CNDR-51990 and CNDR-51993 (representing a 1:1 mixture of two diastereoisomers, 52017 (67) and 52016 (68)) at 2.5 mg/kg each). One hour after dosing, mice were euthanized and blood collected, followed by perfusion with saline. Mouse brains were homogenized in 10 mM ammonium acetate, pH 5.7 (1:2; w/v) using a handheld sonic homogenizer. Mouse plasma was obtained from blood that was collected into a 1.5 ml tube containing 0.5M EDTA solution and which was centrifuged for 10 minutes at 4500 g at 4° C. Aliquots (50 μl) of brain homogenates or plasma were mixed with 0.2 ml of acetonitrile, centrifuged at 15,000×g, and the resulting supernatant was used for subsequent LC-MS/MS analysis. The LC-MS/MS analysis was conducted by Inotiv, Inc., utilizing methods essentially as previously described (Lou et al., J. Med. Chem. 57:6116-27, 2014).

In a further data set the test system is total α-tubulin. In words: cell-based assay of MT-stabilization: total α-tubulin in QBI293 cell lysates by ELISA. As to conditions: QB1293 cells; for fold induction at 1 µM / fold induction at 10 µM: QBI293, 4 h. How it is done: All test compounds were evaluated in a previously described cell-based assay of MT-stabilization (see Kovalevich, J., et al. (2016) Characterization of Brain-Penetrant Pyrimidine-Containing Molecules with Differential Microtubule-Stabilizing Activities Developed as Potential Therapeutic Agents for Alzheimer's Disease and Related Tauopathies. J Pharmacol Exp Ther 357, 432-450, incorporated herein by reference), in which compound-dependent changes in tubulin polymerization and total tubulin levels were determined after 4 h of incubation of QBI293 cells with 1 and 10 μM compound via quantification of acetylated α-tubulin and total tubulin in cell lysates by ELISA.
Novel C6 nitrile- and alkyne-substituted triazolopyrimidine examples that have improved in vitro activity relative to previously described examples, with the general structure depicted in Formula I. The activity of the novel C6-nitrile substituted compounds were tested in a previously described cellular assay of MT-stabilization (Kovalevich, J., et al. (2016)). As summarized in Table 2. below, eighteen examples were synthesized and tested. In all cases, these compounds were confirmed to be active Class I triazolopyrimidines. […] Table 2 provides fold-changes in acetylated α-tubulin and total α-tubulin levels in QB1293 cells after 4 h incubation with test compounds at either 1 or 10 μM. Data are expressed as the fold-change relative to vehicle-treated cells. *p<0.05 and **p<0.01 by one-way ANOVA.
Compounds produced according to the preceding synthetic schemes were for microtubule stabilization. Fold-changes in acetylated α-tubulin (AcTub) and α-tubulin (α-Tub) levels in QB1293 cells after 4 h incubation with test compounds at either 1 or 10 μM. Reported values for AcTub and α-Tub represent the fold-change over control (DMSO)-treated cells (*p<0.05 and **p<0.01 by one-way ANOVA); numbers in parentheses represent the fold-change of AcTub over positive control-treated cells (i.e., 100 nM of cevipabulin). Changes of +/−15% of control are deemed to be within the day-to-day assay variability and non-significant.
For orientation: In an ELISA, binding on a coated surface is turned into a signal by an enzyme label.

Where [2] appears, read: dosed concurrently, individual animals 1-3.
Setting [3] is: 4 h incubation, 1 μM compound, relative to vehicle-treated cells, read-out: α-Tub 1 μM (fold-change in total α-tubulin).
Where [4] appears, read: 4 h incubation, 10 μM compound, relative to vehicle-treated cells, read-out: α-Tub 10 μM (fold-change in total α-tubulin).
Where [5] appears, read: 4 h incubation, 1 μM compound, relative to vehicle-treated cells.
The mark [6] stands for this setting: Table 4, 4 h, 1 μM, read-out: α-Tub l μM (fold-change over control (DMSO)-treated cells).
Setting [7] is: Table 4, 4 h, 10 μM, read-out: α-Tub 10 μM (fold-change over control (DMSO)-treated cells).

As to `CC(C)[C@@H](C)Nc1c(-c2ccc(C#N)cc2F)c(Cl)nc2ncnn12` [CNDR-51993, (R)-4-(5-chloro-7-((3-methylbutan-2-yl)amino)-[1,2,4]triazolo[1,5-a]pyrimidin-6-yl)-3-fluorobenzonitrile], the concentration at 1 h came to 209 ng/g in data set [1] (brain, dosed concurrently, individual animals 1-3, read-out: Brain Concentration); 225 ng/g in data set [1] (brain, dosed concurrently, mean, n=3, read-out: Brain Concentration, Mean); 242 ng/mL in data set [1] (plasma, dosed concurrently, individual animals 1-3, read-out: Plasma Concentration); 206 ng/mL in data set [1] (plasma, dosed concurrently, mean, n=3, read-out: Plasma Concentration, Mean). For the same molecule, the Kp at 1 h in data set [1] (brain, individual animals 1-3, read-out: Brain/Plasma) was 0.86; in data set [1] (brain, mean, n=3, read-out: Brain/Plasma, Mean), 1.09. The “Brain Concentration” value in data set [1] (setting [2]) was 211 ng/g and 254 ng/g. Besides, the “Plasma Concentration” value in data set [1] (setting [2]) is 186 ng/mL and 190 ng/mL. In data set [1] (individual animals 1-3), the Brain/Plasma is 1.13 and 1.34.

For the molecule `C[C@H](Nc1c(-c2c(F)cc(C#N)cc2F)c(Cl)nc2ncnn12)C(F)(F)F` [Compound 19, (S)-4-(5-Chloro-7-((1,1,1-trifluoropropan-2-yl)amino)-[1,2,4]triazolo[1,5-a]pyrimidin-6-yl)-3,5-difluorobenzonitrile], the fold induction at 1 µM in the data set with total α-tubulin (setting [3]) was determined as 0.94 ± 0.02. Also, in the data set on total α-tubulin (setting [4]), the fold induction at 10 µM was 0.95 ± 0.05.

As for `C[C@H](Nc1c(-c2ccc(C#N)cc2F)c(Cl)nc2ncnn12)C(F)(F)F` [Compound 61, (S)-4-(5-Chloro-7-((1,1,1-trifluoropropan-2-yl)amino)-[1,2,4]triazolo[1,5-a]pyrimidin-6-yl)-3-fluorobenzonitrile], in the data set with total α-tubulin (setting [3]), the fold induction at 1 µM amounted to 1. In addition, the fold induction at 10 µM with total α-tubulin (setting [4]) is 1.

Consider `CC(C)[C@@H](Nc1c(-c2ccc(C#N)cc2F)c(Cl)nc2ncnn12)C(F)(F)F` [Compound 63, (R)-4-(5-chloro-7-((1,1,1-trifluoro-3-methylbutan-2-yl)amino)-[1,2,4]triazolo[1,5-a]pyrimidin-6-yl)-3-fluorobenzonitrile], for which the fold induction at 1 µM in the data set on total α-tubulin (setting [3]) stood at 0.99. In addition, in the data set on total α-tubulin (setting [4]), the fold induction at 10 µM stood at 0.98.

Consider `CC(C)[C@@H](C)Nc1c(-c2c(F)cc(C#N)cc2F)c(Cl)nc2ncnn12` [Compound 66, (R)-4-(5-chloro-7-((3-methylbutan-2-yl)amino)-[1,2,4]triazolo[1,5-a]pyrimidin-6-yl)-3,5-difluorobenzonitrile], for which, in the data set with total α-tubulin (setting [3]), the fold induction at 1 µM was 0.93. In addition, the fold induction at 10 µM in the data set on total α-tubulin (setting [4]) came out at 0.94.

In the case of `CC(C)[C@@H](C)Nc1c(-c2ccc(C#N)cc2F)c(Cl)nc2ncnn12` [Compound 68, (R)-4-(5-chloro-7-((3-methylbutan-2-yl)amino)-[1,2,4]triazolo[1,5-a]pyrimidin-6-yl)-3-fluorobenzonitrile], in the data set on total α-tubulin (4 h incubation, 1 μM compound, relative to vehicle-treated cells, listed as 52016 (68)), the “α-Tub 1 μM (fold-change in total α-tubulin)” value was 0.95 +/− 0.02 fold-change. The “α-Tub 10 μM (fold-change in total α-tubulin)” value with total α-tubulin (4 h incubation, 10 μM compound, relative to vehicle-treated cells, listed as 52016 (68)) is listed as 0.92 +/− 0.01 fold-change.

For `N#Cc1cc(F)c(-c2c(Cl)nc3ncnn3c2N2CCCCCC2)c(F)c1` [Compound 75, 4-(7-(Azepan-1-yl)-5-chloro-[1,2,4]triazolo[1,5-a]pyrimidin-6-yl)-3,5-difluorobenzonitrile], in the data set on total α-tubulin (setting [3]), the fold induction at 1 µM is 0.98 ± 0.03. Moreover, the fold induction at 10 µM with total α-tubulin (setting [4]) was 0.99.

In the case of `N#Cc1ccc(-c2c(Cl)nc3ncnn3c2N2CCCCCC2)c(F)c1` [Compound 76, 4-(7-(Azepan-1-yl)-5-chloro-[1,2,4]triazolo[1,5-a]pyrimidin-6-yl)-3-fluorobenzonitrile], the “α-Tub 1 μM (fold-change in total α-tubulin)” value with total α-tubulin (setting [5]) was 1.04 +/− 0.05 fold-change. Besides, the fold induction at 10 µM with total α-tubulin (setting [4]) was determined as 0.99.

Regarding `N#Cc1cc(F)c(-c2c(Cl)nc3ncnn3c2N2CCCCCCC2)c(F)c1` [Compound 77, 4-(7-(azocan-1-yl)-5-chloro-[1,2,4]triazolo[1,5-a]pyrimidin-6-yl)-3,5-difluorobenzonitrile], the “α-Tub 1 μM (fold-change in total α-tubulin)” value in the data set with total α-tubulin (setting [5]) was 1.01 +/− 0.02 fold-change. The fold induction at 10 µM in the data set with total α-tubulin (setting [4]) was determined as 0.99.

`C#Cc1cc(F)c(-c2c(Cl)nc3ncnn3c2N[C@H](C)C(C)C)c(F)c1` [TAL-487, (R)-5-chloro-6-(4-ethynyl-2,6-difluorophenyl)-N-(3-methylbutan-2-yl)-[1,2,4]triazolo[1,5-a]pyrimidin-7-amine]: the fold induction at 1 µM with total α-tubulin (setting [6]) was determined as 0.98.

On to `CC(C)[C@@H](C)Nc1c(-c2c(F)cc(C#CCN(C)C)cc2F)c(Cl)nc2ncnn12` [TAL-546, (R)-5-chloro-6-(4-(3-(dimethylamino)prop-1-yn-1-yl)-2,6-difluorophenyl)-N-(3-methylbutan-2-yl)-[1,2,4]triazolo[1,5-a]pyrimidin-7-amine], for which the fold induction at 1 µM in the data set with total α-tubulin (setting [6]) is 0.98.

Consider `C[C@@H](Nc1c(-c2c(F)cc(C#CCCCO)cc2F)c(Cl)nc2ncnn12)C(C)(C)C` [TAL-601, (R)-5-(4-(5-chloro-7-((3,3-dimethylbutan-2-yl)amino)-[1,2,4]triazolo[1,5-a]pyrimidin-6-yl)-3,5-difluorophenyl)pent-4-yn-1-ol], for which the fold induction at 1 µM in the data set on total α-tubulin (setting [6]) stood at 1.18.

Turning to `CNCC#Cc1cc(F)c(-c2c(Cl)nc3ncnn3c2N[C@H](C)C(C)C)c(F)c1` [TAL-637, (R)-5-chloro-6-(2,6-difluoro-4-(3-(methylamino)prop-1-yn-1-yl)phenyl)-N-(3-methylbutan-2-yl)-[1,2,4]triazolo[1,5-a]pyrimidin-7-amine hydrochloride], in the data set with total α-tubulin (setting [6]), the fold induction at 1 µM worked out at 0.96. Also, the fold induction at 10 µM with total α-tubulin (setting [7]) was 0.96.

With `CNCC#Cc1cc(F)c(-c2c(Cl)nc3ncnn3c2N[C@H](C)C(C)(C)C)c(F)c1` [TAL-638, (R)-5-chloro-6-(2,6-difluoro-4-(3-(methylamino)prop-1-yn-1-yl)phenyl)-N-(3,3-dimethylbutan-2-yl)-[1,2,4]triazolo[1,5-a]pyrimidin-7-amine hydrochloride], in the data set with total α-tubulin (setting [6]), the fold induction at 1 µM is 0.93. Also, the fold induction at 10 µM with total α-tubulin (setting [7]) is 1.

For the molecule `C[C@H](Nc1c(-c2c(F)cc(C#CCCO)cc2F)c(Cl)nc2ncnn12)C(F)(F)F` [TAL-641, (S)-4-(4-(5-chloro-7-((1,1,1-trifluoropropan-2-yl)amino)-[1,2,4]triazolo[1,5-a]pyrimidin-6-yl)-3,5-difluorophenyl)but-3-yn-1-ol], the fold induction at 1 µM with total α-tubulin (setting [6]) amounted to 0.98.

Take `C[C@H](Nc1c(-c2c(F)cc(C#CCCCO)cc2F)c(Cl)nc2ncnn12)C(F)(F)F` [TAL-642, (S)-5-(4-(5-chloro-7-((1,1,1-trifluoropropan-2-yl)amino)-[1,2,4]triazolo[1,5-a]pyrimidin-6-yl)-3,5-difluorophenyl)pent-4-yn-1-ol]: the fold induction at 1 µM in the data set on total α-tubulin (setting [6]) stood at 0.93. Besides, the fold induction at 10 µM in the data set on total α-tubulin (setting [7]) came out at 0.87.

With `C[C@@H](Nc1c(-c2c(F)cc(C#CCCN(C)C)cc2F)c(Cl)nc2ncnn12)C(C)(C)C` [TAL-664, (R)-5-chloro-6-(4-(4-(dimethylamino)but-1-yn-1-yl)-2,6-difluorophenyl)-N-(3,3-dimethylbutan-2-yl)-[1,2,4]triazolo[1,5-a]pyrimidin-7-amine], the fold induction at 1 µM with total α-tubulin (setting [6]) amounted to 0.88. Moreover, in the data set with total α-tubulin (setting [7]), the fold induction at 10 µM was 0.96.
